Measured values published in patent US6066333A, “Pharmaceutical control of inflammation” (William Harvey Research Limited, priority 1994, dated 2000).
Entries after “also recorded” stand apart in the source; their conditions may differ.

Legend:
[1] = test system: heme-oxygenase (spleen homogenates); experiment: heme-oxygenase activity in rat spleen homogenates; format: biochemical; details: 0.1-10 mM (sodium nitroprusside 0.001-10 mM)
Description: (§1) The brains and spleens of male Wistar rats (160±20 g, Tuck Co. UK) were homogenized using a glass homogenizer, in protease inhibitory buffer; phenylmethylsulfonyl fluoride 1 mM, pepstatin A 1.5 mM and leupeptin 0.2 mM, in 10 mM phosphate buffered saline pH 7.3. Protein determinations were carried by the Bradford method, bovine serum albumin was used as protein standard.
(§2) Heme-oxygenase activity was assayed as previously described (Sierra, E. E. et al., (1992) Analytical Biochem. 200, 27-30).
(§3) Briefly, the 15 μl reaction mixture consisted of 11.2 μM [^14 C] heme (specific activity 54 Ci/mol), 1 mM NADPH, 2 mM glucose-6-phosphate, 0.1 units of glucose-6-phosphate dehydrogenase, 3 mg/ml liver cytosolic protein, 100-50 μg of sample protein and the relevant concentration of test drugs; L-arginine, D-arginine, NG-nitro-L-arginine methyl ester (L-NAME) or sodium nitroprusside. The reaction mixture containing the test drugs was allowed to equilibrate at 37° C. for 15 mins before the reaction was started by the addition of the heme. The reaction was terminated after 30 mins by the addition of excess cold heme and bilirubin and placed on ice. The reaction mixture was spotted on to the silica gel thin-layer chromatography sheet by 2, 2 μl applications. All samples were run in duplicate. The chromatogram was developed using a 20:1 dilution of chloroform:acetic acid. Spots corresponding to heme and bilirubin were excised and placed in 10 ml of scintillation fluid to be counted. The data was calculated as pmols bilirubin formed/mg protein/hour.
(§4) Statistical analysis of the raw data was carried using Student's unpaired t test. Results expressed as mean ± s.e.mean with P<0.05 considered as significant.

[2] = test system: heme-oxygenase (brain homogenates); experiment: heme-oxygenase activity in rat brain homogenates; format: biochemical; details: for effect on brain HO activity: 0.1-10 mM (sodium nitroprusside 0.001-10 mM)
Description: as §1, §2, §3, §4

carrageenin pleurisy [3] = experiment: rat carrageenin pleurisy, dose response of HO modulators (Example 2); format: in vivo; details: for effect on the inflammatory lesion compared to vehicle control at 6 hours: 6 hours after carrageenin, PMNs phase (data not shown); for effect on inflammation at 24 hours (dose dependence): 3, 10 or 30 μmoles/kg
Description: Animals received 2 doses of either 3, 10 or 30 μmoles/kg SnPP (a HO inhibitor) or vehicle control--18 hours and at the time of inflammation induction. Animals received 1 dose of either 3, 10 or 30 μmoles/kg FePP (a HO inducer) or vehicle control--18 hours before induction of inflammation, n=9.
Male Wistar rats 200+20 grams were anaesthetized with halothane and 150 ul of a 1% carrageenin solution in 0.9% NaCl injected into the pleural cavity. Exudates were collected 2, 6, 12, 24 and 48 hours after injection of the irritant by pleural lavage with 1 ml protease inhibitory buffer containing: trisodium citrate 3.15%, phenylmethylsulfonyl fluoride 1 mM (Sigma Chemical Co., Poole, UK), pepstatin A 1.5 mM (Sigma) and leupeptin 0.2 mM (Sigma) in 10 mM phosphate buffered (PBS) pH 7.3. Any exudates with blood contamination were rejected. Cells were counted using a Coulter counter, model DN (Coulter Electronics Ltd., Luton, UK). Each sample was centrifuged at 800 g for 10 minutes and the resultant cell pellet prepared as outlined below.
Results are expressed as the mean ± s.e.mean for (n) experiments. Statistical analysis was determined Student's unpaired t test, with a P value of <0.05 considered significant.
To investigate whether increased HO activity was not only associated with tissue protection but also involved in resolving acute inflammation we used an HO inhibitor, tin protoporphyrin (SnPP), administered sub-cutaneously 18 hours before and at the time of carrageenin injection, and an HO inducer, ferriprotoporphyrin IX chloride (FePP), given […] 18 hours before induction of the inflammation (Maines MD et al., FASEB J. 1988; 2:2557-2568).

carrageenin pleurisy [4] = experiment: rat carrageenin pleurisy model of acute inflammation (Example 1); format: in vivo; details: for Exudate Volume / Total Cells 10^6: mean ± s.e. mean; for effect on inflammation (exudate volumes and cell numbers) at 6 hours: compared to controls; for increase of exudate volume (cell exudate) compared to vehicle control: SnPP 2 x 40 μmoles/kg s.c.
Description: Male Wistar rates 200±20 grams (Tuck & Sons Ltd., Essex, UK) were used for inflammation. Animals were administered either with 15 mg/kg Ferriprotoporphrin IX chloride (FePP) by intravenous injection--18 hours before inflammation or with 2 doses of 40 μmoles/kg Tin protoporphyrin dichloride (SnPP) by sub-cutaneous injection--18 hours and at the time of inflammation induction (porphyrins were obtained from Porphyrin Products Inc., Logan, Utah). Drugs were prepared in 0.1N NaOH and mixed 1:1 with saline, these were then adjusted to pH 7.4, drug vehicle. The total volume injected was 0.2 ml. Control animals received vehicle only.
Carrageenin pleurisy was induced in rats and cell pellet prepared as previously described by Tomlinson et al.
Results are expressed as the mean ± s.e. mean. Statistical analysis was determined by Mann-Whitney U-test, with a P value of <0.05 considered significant.
The effect of heme-oxygenase inhibitor Tin protoporphyrin dichloride (SnPP) and inducer ferriprotoporphyrin IX chloride (FePP) on acute inflammation was examined. Treatment animals received either 2 doses of 40 μmoles/kg SnPP s.c.--18 and 0 hours before induction of inflammation, or 1 doses of 15 mg/kg FePP i.v--18 before inflammation. Treatment animals were compared to control animals which had received vehicle only by the appropriate route.***P<0.001.

heme-oxygenase = experiment: HO activity of 24 hour inflammatory cells after porphyrin treatment; format: in vivo, rat; details: FIGS. 15 and 16
Description: Cells are lysed by sonication for 10 seconds in protease inhibitory buffer. Heme-oxygenase is assayed as previously described. […] The reaction is started by the addition of the heme, incubated at 37° C. for 30 minutes and stopped by the addition of excess cold heme and bilirubin followed by placing on ice. 2 μl of reaction mixture is spotted twice onto a silica gel thin-layer chromatography sheet. The chromatogram is developed using a 20:1 dilution of chloroform:acetic acid. Spots corresponding to hem and bilirubin are were cut out and placed in 10 ml of scintillation fluid to be counted. […] The activity is expressed as pmoles bilirubin/mg protein/hour, n=9. Results are expressed as the mean ± s.e.mean.

[5] = 6 hours after carrageenin, SnPP 2 x 40 μmoles/kg s.c. (-18 and 0 h) or FePP 15 mg/kg i.v. (-18 h)
[6] = 6 hours after carrageenin, SnPP 2 x 40 μmoles/kg s.c. or FePP 15 mg/kg i.v.
[7] = 24 hours after carrageenin, SnPP 2 x 40 μmoles/kg s.c. or FePP 15 mg/kg i.v.
[8] = 24 hours, FePP 3 μmole/kg, 1 dose s.c. 18 hours before
[9] = 24 hours, FePP 15 mg/kg i.v., P<0.001

## N=C(N)NCCC[C@H](N)C(=O)O [L-arginine]
[1]
  effect on spleen HO activity: not modified; also recorded: no effect
[2]; 10 mM, vs control without compound, 30 min
  decrease in brain HO activity: 75%
[2]
  effect on brain HO activity: dose dependent decrease; also recorded: decreased heme-oxygenase activity

## C=CC1=C(C)C2=Cc3c(C=C)c(C)c4[n]3[Sn]([Cl])([Cl])[n]3c(c(C)c(CCC(=O)O)c3=CC3=NC(=C4)C(C)=C3CCC(=O)O)=CC1=N2 [SnPP, Tin protoporphyrin dichloride]
Carrageenin pleurisy [3]
  effect on the inflammatory lesion compared to vehicle control at 6 hours: Neither SnPP or FePP treatments had an effect
Carrageenin pleurisy [3]; 24 hours, 3 μmoles/kg SnPP, 2 doses s.c.
  increase of exudate volume compared to vehicle control: 70%
Carrageenin pleurisy [3]; 24 hours
  effect on inflammation at 24 hours (dose dependence): dose dependant increase in inflammatory exudate
Carrageenin pleurisy [3]; 24 hours, SnPP 30 μmoles/kg
  effect on exudate volume at highest dose: increased exudate volume further
Carrageenin pleurisy [3]; 24 hours, SnPP 30 μmoles/kg, likely a toxic effect
  effect on inflammatory cell number at highest dose: decrease in inflammatory cell number
Carrageenin pleurisy [4]; [5]
  Exudate Volume: 1.59 ± 0.12 mL
Carrageenin pleurisy [4]; [6]
  Total Cells 10^6: 67 ± 6 10^6
Carrageenin pleurisy [4]
  effect on inflammation (exudate volumes and cell numbers) at 6 hours: not significantly modified
Carrageenin pleurisy [4]; listed as tin Protoporphyrin-IX
  effect on inflammation (exudate volumes and cell numbers) at 6 hours: no significant effect
Carrageenin pleurisy [4]; [7]
  Exudate Volume: 1.80 ± 0.21 mL
  Total Cells 10^6: 58 ± 6 10^6
Carrageenin pleurisy [4]; 24 hours, P<0.001
  increase of exudate volume (cell exudate) compared to vehicle control: 128%
Carrageenin pleurisy [4]; 24 hours, P<0.001, listed as tin Protoporphyrin-IX
  increase of exudate volume (cell exudate) compared to vehicle control: 135%
heme-oxygenase
  HO activity of inflammatory pellets after treatment: reduction of HO activity

## N=C(N)NCCC[C@@H](N)C(=O)O [D-arginine]
[1]
  effect on spleen HO activity: not modified; also recorded: no effect
[2]
  effect on brain HO activity: no significant effect

## C=CC1=C(C)c2cc3[n-]c(cc4[n-]c(cc5nc(cc1n2)C(C)=C5C=C)c(C)c4CCC(=O)O)c(CCC(=O)O)c3C.[Cl-].[Fe+3] [FePP, Ferriprotoporphrin IX chloride]
Carrageenin pleurisy [3]
  effect on the inflammatory lesion compared to vehicle control at 6 hours: Neither SnPP or FePP treatments had an effect
Carrageenin pleurisy [3]; 24 hours
  degree of suppression compared with conventional anti-inflammatories or steroids in this model: greater than that seen with optimal doses of conventional anti-inflammatories or steroids
  effect on inflammation at 24 hours (dose dependence): dose dependant suppression of inflammatory cell number and exudate volume
Carrageenin pleurisy [3]; [8]
  reduction of exudate volume compared to vehicle control: 55%
  reduction of inflammatory cell number compared to vehicle control: 90%
Carrageenin pleurisy [4]; [5]
  Exudate Volume: 0.99 ± 0.11 mL
Carrageenin pleurisy [4]; [6]
  Total Cells 10^6: 50 ± 8 10^6
Carrageenin pleurisy [4]
  effect on inflammation (exudate volumes and cell numbers) at 6 hours: not significantly modified
Carrageenin pleurisy [4]; listed as hemin
  effect on inflammation (exudate volumes and cell numbers) at 6 hours: no significant effect
Carrageenin pleurisy [4]; [7]
  Exudate Volume: 0.37 ± 0.07 mL
  Total Cells 10^6: 45 ± 6 10^6
Carrageenin pleurisy [4]; [9]
  decrease of cell number (total cells) compared to vehicle control: 50%
  decrease of exudate volume (cell exudate) compared to vehicle control: 73%
Carrageenin pleurisy [4]; 24 hours, FePP 15 mg/kg i.v., P<0.001, listed as hemin
  decrease of exudate volume (cell exudate) compared to vehicle control: 83%
heme-oxygenase
  HO activity of inflammatory pellets after treatment: increase

## COC(=O)[C@@H](N)CCCNC(=N)N[N+](=O)[O-] [L-NAME, NG-nitro-L-arginine methyl ester]
[1]
  effect on spleen HO activity: not modified; also recorded: no effect
[2]; 5 mM L-NAME, vs control without compound
  increase in brain HO activity: 80%
[2]
  effect on brain HO activity: dose dependent increase; also recorded: increased activity
